This assay relates to H358 cells. As to the kind of experiment: Cell activity experiment: activity test of H358 cells (MTT, 5 days). It is filed as cell-based. The conditions noted are these: Homo sapiens, NCI-H358, 120 h, 5 days incubation, absorbance 492 nm. As for the experimental part: Example: Cell Activity Experiment
1. Cells: H358 purchased from Shanghai EK-Bioscience Biotechnology Co., Ltd.
2. Reagents: RPMI 1640 medium, Tryple, MTT (5 mg/mL), DMSO, and DPBS.
3. Instruments: an incubator at 37° C. and 5% CO2, a UTRAO microplate reader, a biosafety cabinet, a cell counting plate, and an Optec optical microscope.
4. Experimental consumables: 96-well plate Item No.: 3599, and 96-well round-bottomed dispensing plate.
Experimental Steps of Activity Test of H358 Cells:
1. Plating: Cells in the logarithmic growth phase were digested with Tryple and terminated with a fresh medium, and the cells were counted; and the cell concentration was adjusted to 55555 cells/mL with a fresh medium, wherein 90 μL was added to each well, and those on edges were filled with sterile DPBS.
2. The plate was incubated in the incubator at 37° C. and 5% CO2 for 24 h, so that the cells cover the bottom of the well by about 50%.
3. Drug preparation for experimental group: The drug was dissolved in DMSO to prepare a 20 mmol/L stock solution; the stock solution was further diluted with DMSO to 2 mmol/L, which was serially 3-fold diluted to form an […]-concentration gradient, resulting in a 200× serial compound solution; 10 μL of the serial compound solution was taken and added to 190 μLμL of RPMI1640 medium to obtain a 10× serial compound solution; and 10 μL of the 10× compound solution was taken and added to 90 μL 96-well cell culture plate, with three replicates per grade. The concentration gradient of the compound in the 96-well cell culture plate was […], 1.524158 nM, 4.572474 nM, 13.717420 nM, 41.152260 nM, 123.456800 nM, 370.370400 nM, 1111.111000 nM, 3333.333000 nM, and 10000.000000 nM, with 100 μL per well, and the final concentration of DMSO was 0.5%.
The control group contained the same volume of solvent as the experimental group and was diluted with a complete medium, with 100 μL per well.
4. Incubation was carried out for 5 days in an incubator with 5% CO2 at 37° C.
5. After 5 days, 10 μL of an MTT solution (5 mg/mL) was added to each well, and the culture was continued for 4 h.
6. The culture was terminated, and the culture solution was carefully sucked out of the well.
7. 150 μL of dimethyl sulfoxide (DMSO) was added to each of the null wells in the experimental group and the control group; and after shaking at a medium speed for 10 s, the crystal was fully dissolved, and the optical absorbance value thereof was measured at a wavelength of 492 nm.

Structures are written as SMILES.

With `C=C(F)C(=O)N1CCN(c2nc(OC[C@@H]3CCCN3C)nc3c(F)c(-c4ccc(F)c5c4CCCC5)ncc23)C[C@@H]1CC#N` [Example 18], the IC50 – broadly, the midpoint of a concentration-inhibition curve – worked out at 100 nM.

Take `C=CC(=O)N1CCN(c2nc(OC[C@@H]3C[C@@H](F)CN3C)nc3c(F)c(-c4ccc(F)c5c4CCCC5)ncc23)C[C@@H]1CC#N` [Example 19]: the half-inhibitory concentration (IC50) was 35 nM.

Regarding `C=C(F)C(=O)N1CCN(c2nc(OC[C@@H]3C[C@@H](F)CN3C)nc3c(F)c(-c4ccc(F)c5c4CCCC5)ncc23)C[C@@H]1CC#N` [Example 20], 120 nM corresponded to half-maximal inhibition (IC50).

With `C=CC(=O)N1CCN(c2nc(OCC34CCCN3CCC4)nc3c(F)c(-c4ccc(F)c5c4CCCC5)ncc23)C[C@@H]1CC#N` [Example 21], the IC50 is 7 nM.

In turn, `C=C(F)C(=O)N1CCN(c2nc(OCC34CCCN3CCC4)nc3c(F)c(-c4ccc(F)c5c4CCCC5)ncc23)C[C@@H]1CC#N` [Example 22] showed an IC50 of 20 nM.

In turn, `C=CC(=O)N1CCN(c2nc(OC[C@@]34CCCN3C[C@H](F)C4)nc3c(F)c(-c4ccc(F)c5c4CCCC5)ncc23)C[C@@H]1CC#N` [Example 23] yielded an IC50 of 3 nM.

`C=C(F)C(=O)N1CCN(c2nc(OC[C@@]34CCCN3C[C@H](F)C4)nc3c(F)c(-c4ccc(F)c5c4CCCC5)ncc23)C[C@@H]1CC#N` [Example 24]: the IC50 is 15 nM.

Compound `C=CC(=O)N1CC[C@@H]2[C@H]1CN2c1nc(OC[C@@H]2CCCN2C)nc2c(F)c(-c3ccc(F)c4c3CCCC4)ncc12` [Example 25] yielded a 50% inhibitory concentration (IC50) of 10 nM.

On to `C=C(F)C(=O)N1CC[C@@H]2[C@H]1CN2c1nc(OC[C@@H]2CCCN2C)nc2c(F)c(-c3ccc(F)c4c3CCCC4)ncc12` [Example 26], for which the half-maximal inhibitory concentration (IC50) is 40 nM.

For `C=CC(=O)N1CC[C@@H]2[C@H]1CN2c1nc(OC[C@@H]2C[C@@H](F)CN2C)nc2c(F)c(-c3ccc(F)c4c3CCCC4)ncc12` [Example 27], the IC50 was 15 nM.

With `C=C(F)C(=O)N1CC[C@@H]2[C@H]1CN2c1nc(OC[C@@H]2C[C@@H](F)CN2C)nc2c(F)c(-c3ccc(F)c4c3CCCC4)ncc12` [Example 28], the IC50 stood at 80 nM.

For `C=CC(=O)N1CC[C@@H]2[C@H]1CN2c1nc(OCC23CCCN2CCC3)nc2c(F)c(-c3ccc(F)c4c3CCCC4)ncc12` [Example 29], the 50% inhibitory concentration (IC50) is 10 nM.

`C=C(F)C(=O)N1CC[C@@H]2[C@H]1CN2c1nc(OCC23CCCN2CCC3)nc2c(F)c(-c3ccc(F)c4c3CCCC4)ncc12` [Example 30] gave a 50% inhibitory concentration (IC50) of 60 nM.

Regarding `C=CC(=O)N1CC[C@@H]2[C@H]1CN2c1nc(OC[C@@]23CCCN2C[C@H](F)C3)nc2c(F)c(-c3ccc(F)c4c3CCCC4)ncc12` [Example 31], the half-inhibitory concentration (IC50) was determined as 8 nM.

As for `C=C(F)C(=O)N1CC[C@@H]2[C@H]1CN2c1nc(OC[C@@]23CCCN2C[C@H](F)C3)nc2c(F)c(-c3ccc(F)c4c3CCCC4)ncc12` [Example 32], the IC50 was determined as 35 nM.

As to `C=CC(=O)N1CCN(c2nc(OC[C@@H]3CCCN3C)nc3c(F)c(-c4cncc5c4CCCC5)ncc23)C[C@@H]1CC#N` [Example 33, 2-((S)-1-acryloyl-4-(8-fluoro-2-(((S)-1-methylpyrrolidin-2-yl)methoxy)-7-(5,6,7,8-tetrahydroisoquinoline-4-yl)pyridino[4,3-d]pyrimidin-4-yl)piperazin-2-yl)acetonitrile], the IC50 was 25 nM.

In the case of `C=C(F)C(=O)N1CCN(c2nc(OC[C@@H]3CCCN3C)nc3c(F)c(-c4cncc5c4CCCC5)ncc23)C[C@@H]1CC#N` [Example 34, 2-((S)-4-(8-fluoro-2-(((S)-1-methylpyrrolidin-2-yl)methoxy)-7-(5,6,7,8-tetrahydroisoquinolin-4-yl)pyridino[4,3-d]pyrimidin-4-yl)-1-(2-fluoroacryloyl)piperazin-2-yl)acetonitrile], it took 80 nM to reach half-maximal inhibition (IC50).

Compound `C=CC(=O)N1CCN(c2nc(OC[C@@H]3C[C@@H](F)CN3C)nc3c(F)c(-c4cncc5c4CCCC5)ncc23)C[C@@H]1CC#N` [Example 35] showed a concentration for half-maximal inhibition (IC50) of 15 nM.

`C=C(F)C(=O)N1CCN(c2nc(OC[C@@H]3C[C@@H](F)CN3C)nc3c(F)c(-c4cncc5c4CCCC5)ncc23)C[C@@H]1CC#N` [Example 36] showed an IC50 of 120 nM.

`C=CC(=O)N1CCN(c2nc(OCC34CCCN3CCC4)nc3c(F)c(-c4cncc5c4CCCC5)ncc23)C[C@@H]1CC#N` [Example 37, (S)-2-(1-acryloyl-4-(8-fluoro-2-((tetrahydro-1H-pyrrolizin-7a(5H)-yl)methoxy)-7-(5,6,7,8-tetrahydroisoquinolin-4-yl)pyridino[4,3-d]pyrimidin-4-yl)piperazin-2-yl)acetonitrile]: the midpoint of inhibition, the IC50, lay at 15 nM.

In turn, `C=C(F)C(=O)N1CCN(c2nc(OCC34CCCN3CCC4)nc3c(F)c(-c4cncc5c4CCCC5)ncc23)C[C@@H]1CC#N` [Example 38, (S)-2-(4-(8-fluoro-2-((tetrahydro-1H-pyrrolizin-7a(5H)-yl)methoxy)-7-(5,6,7,8-tetrahydroisoquinolin-4-yl)pyridino[4,3-d]pyrimidin-4-yl)-1-(2-fluoroacryloyl)piperazin-2-yl)acetonitrile] registered a 50% inhibitory concentration (IC50) of 36 nM.

In turn, `C=CC(=O)N1CCN(c2nc(OC[C@@]34CCCN3C[C@H](F)C4)nc3c(F)c(-c4cncc5c4CCCC5)ncc23)C[C@@H]1CC#N` [Example 39] came in with an IC50 of 8 nM.

Compound `C=C(F)C(=O)N1CCN(c2nc(OC[C@@]34CCCN3C[C@H](F)C4)nc3c(F)c(-c4cncc5c4CCCC5)ncc23)C[C@@H]1CC#N` [Example 40] yielded an IC50 of 30 nM.

`C=CC(=O)N1CC[C@@H]2[C@H]1CN2c1nc(OC[C@@H]2CCCN2C)nc2c(F)c(-c3cncc4c3CCCC4)ncc12` [Example 41]: 15 nM corresponded to half-maximal inhibition (IC50).

Consider `C=C(F)C(=O)N1CC[C@@H]2[C@H]1CN2c1nc(OC[C@@H]2CCCN2C)nc2c(F)c(-c3cncc4c3CCCC4)ncc12` [Example 42, 2-fluoro-1-(((1R,5R)-6-(8-fluoro-2-(((S)-1-methylpyrrolidin-2-yl)methoxy)-7]-(5,6,7,8-tetrahydroisoquinolin-4-yl)pyridino[4,3-d]pyrimidin-4-yl)-2,6-diazabicyclo[3.2.0]hept-2-yl)prop-2-en-1-one], for which the midpoint of inhibition, the IC50, lay at 35 nM.

Compound `C=CC(=O)N1CC[C@@H]2[C@H]1CN2c1nc(OC[C@@H]2C[C@@H](F)CN2C)nc2c(F)c(-c3cncc4c3CCCC4)ncc12` [Example 43] had a half-maximal inhibitory concentration (IC50) of 16 nM.

In turn, `C=C(F)C(=O)N1CC[C@@H]2[C@H]1CN2c1nc(OC[C@@H]2C[C@@H](F)CN2C)nc2c(F)c(-c3cncc4c3CCCC4)ncc12` [Example 44] displayed an IC50 of 64 nM.

The compound `C=CC(=O)N1CC[C@@H]2[C@H]1CN2c1nc(OCC23CCCN2CCC3)nc2c(F)c(-c3cncc4c3CCCC4)ncc12` [Example 45, 1-((1R,5R)-6-(8-fluoro-2-((tetrahydro-1H-pyrrolizin-7a(5H)-yl)methoxy)-7-(5,6,7,8-tetrahydroisoquinoline-4-yl)pyridino[4,3-d]pyrimidin-4-yl)-2,6-diazabicyclo[3.2.0]hept-2-yl)prop-2-en-1-one] gave an IC50 of 10 nM.

With `C=C(F)C(=O)N1CC[C@@H]2[C@H]1CN2c1nc(OCC23CCCN2CCC3)nc2c(F)c(-c3cncc4c3CCCC4)ncc12` [Example 46, 2-fluoro-1-(((1R,5R)-6-(8-fluoro-2-((tetrahydro-1H-pyrrolizin-7a(5H)-yl)methoxy))-7-(5,6,7,8-tetrahydroisoquinolin-4-yl)pyridino[4,3-d]pyrimidin-4-yl)-2,6-diazabicyclo[3.2.0]hept-2-yl)prop-2-en-1-one], the IC50 is 30 nM.

Turning to `C=CC(=O)N1CC[C@@H]2[C@H]1CN2c1nc(OC[C@@]23CCCN2C[C@H](F)C3)nc2c(F)c(-c3cncc4c3CCCC4)ncc12` [Example 47], it took 6.5 nM to reach half-maximal inhibition (IC50).

Turning to `C=C(F)C(=O)N1CC[C@@H]2[C@H]1CN2c1nc(OC[C@@]23CCCN2C[C@H](F)C3)nc2c(F)c(-c3cncc4c3CCCC4)ncc12` [Example 48], half-maximal inhibition (IC50) required 20 nM.

`C=CC(=O)N1CCN(c2nc(OC[C@@H]3CCCN3C)nc3c(F)c(-c4cccc5c4SCCC5)ncc23)C[C@@H]1CC#N` [Example 49, 2-((S)-1-acryloyl-4-(8-fluoro-2-(((S)-1-methylpyrrolidin-2-yl)methoxy)-7-(thiochroman-8-yl)pyridino[4,3-d]pyrimidin-4-yl)piperazin-2-yl)acetonitrile]: the half-inhibitory concentration (IC50) was determined as 57 nM.

Values taken from patent US20240109893A1, “PREPARATION AND APPLICATION METHOD OF HETEROCYCLIC COMPOUNDS AS KRAS INHIBITOR” (SHANGHAI KECHOW PHARMA, INC., priority 2020, published 2024).
